Source: BindingDB's records for doi:10.1016/j.chembiol.2009.07.006 (Burnham Institute For Medical Research, 2009)
“And” between values parts separate entries of the source, which are not always exact repeats. Identical values can stand only once.

Target: T1, Nicotinate-nucleotide adenylyltransferase (Escherichia coli (strain K12), UniProt P0A752)
T1 sequence (P0A752 whole entry): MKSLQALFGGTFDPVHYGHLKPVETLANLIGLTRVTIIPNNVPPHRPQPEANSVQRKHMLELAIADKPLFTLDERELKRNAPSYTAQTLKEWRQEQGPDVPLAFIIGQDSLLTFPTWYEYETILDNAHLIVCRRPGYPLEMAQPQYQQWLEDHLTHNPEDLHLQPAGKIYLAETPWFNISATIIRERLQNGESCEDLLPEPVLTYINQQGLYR
Assay: Enzymatic Inhibition Assay
Source text: The enzymatic assay was masured at fixed NaMN and ATP concentration (equal to two-fold km values)with various concentration of inhibitory compounds.

For `O=C(CCC(=O)Nc1cccc(Cl)c1)NN=Cc1c2ccccc2cc2ccccc12` [NadD inhibitor 1_02], the Ki was 8 µM and 5 µM.
